Test results as given in US20230115534A1 (ARKUDA THERAPEUTICS, priority 2019, published 2023).
Structures can show the parent of a compound that is named as a salt.

system: progranulin (PGRN); experiment: progranulin induction cellular assay (PGRN assay), ELISA-based readout; settings: PGRN assay as described: mouse primary microglia, primary cortical neurons and BV-2 cell lines; secreted mouse PGRN in medium by ELISA; cell type for Table B not specified
Experimental: Cellular Assays: To measure the efficacy of compounds, a progranulin induction cellular assay in mouse primary microglia (pMG), primary cortical neurons, and BV-2 cell lines is used. BV-2 cells are split the day before plating into a 96 well plate format at approximately 80%. Cells should be plated the day before and allowed for 1 hour attachment period and for 16 hour incubation. Levels of progranulin secreted into the cell culture medium or retained in the cell lysate can be quantified using an ELISA-based readout and measurement of secreted mouse PGRN in the medium was assessed by the methodology published by Ghidoni et al. 2012. Standard ELISA kits to measure PGRN are available from vendors such as Adipogen, R&D, and Biovendor.
Table B below presents the results of a PGRN assay as described above.

| Compound | EC50 [nM] |
| --- | --- |
| N[C@@H]1CC[C@@H]1COC(=O)N1CCc2ccccc2[C@@H]1c1ccc(F)cc1 [Compound 4132, ((1S,2R)-2-aminocyclobutyl)methyl (S)-1-(4-fluorophenyl)-3,4-dihydroisoquinoline-2(1H)-carboxylate] | 1010 |
| NC12CC(CC(=O)N3CCc4ccccc4C3c3ccc(F)cc3)(C1)C2 [Compound 4056, (S)-2-(3-aminobicyclo[1.1.1]pentan-1-yl)-1-(1-(4-fluorophenyl)-3,4-dihydroisoquinolin-2(1H)-yl)ethan-1-one] | 1440 |
| O=C(NC12CC(N3CCCC3=O)(C1)C2)N1CCc2ccccc2[C@@H]1c1ccc(F)cc1 [Compound 4024, (S)-1-(4-fluorophenyl)-N-(3-(2-oxopyrrolidin-1-yl)bicyclo[1.1.1]pentan-1-yl)-3,4-dihydroisoquinoline-2(1H)-carboxamide] | > 10000 |
| NC[C@H]1C[C@@H](OC(=O)N2CCc3ccccc3[C@@H]2c2ccc(F)cc2)C1 [Compound 4030, Cis-3-(aminomethyl)cyclobutyl (S)-1-(4-fluorophenyl)-3,4-dihydroisoquinoline-2(1H)-carboxylate] | 9640 |
| CS(=O)(=O)NC12CC(OC(=O)N3CCc4ccccc4[C@@H]3c3ccc(F)cc3)(C1)C2 [Compound 4018, 3-(Methylsulfonamido)bicyclo[1.1.1]pentan-1-yl (S)-1-(4-fluorophenyl)-3,4-dihydroisoquinoline-2(1H)-carboxylate] | > 10000 |
| CN[C@H]1C[C@H](N(C)C(=O)N2CCc3ccccc3[C@@H]2c2ccc(F)cc2)C1 [Compound 4044, (S)-1-(4-fluorophenyl)-N-methyl-N-((trans)-3-(methylamino)cyclobutyl)-3,4-dihydroisoquinoline-2(1H)-carboxamide hydrochloride] | 1030 |
| CN[C@H]1C[C@@H](NC(=O)N2CCc3ccccc3[C@@H]2c2ccc(F)cc2)C1 [Compound 4045, (S)-1-(4-fluorophenyl)-N-(cis-3-(methylamino)cyclobutyl)-3,4-dihydroisoquinoline-2(1H)-carboxamide hydrochloride] | 600 |
| O=C(NC12CC(NS(=O)(=O)C(F)(F)F)(C1)C2)N1CCc2ccccc2[C@@H]1c1ccc(F)cc1 [Compound 4020, (S)-1-(4-fluorophenyl)-N-(3-((trifluoromethyl)sulfonamido)bicyclo[1.1.1]pentan-1-yl)-3,4-dihydroisoquinoline-2(1H)-carboxamide] | 3290 |
| CNC12CC(N(C)C(=O)N3CCc4ccccc4[C@@H]3c3ccc(F)cc3)(C1)C2 [Compound 4009, (S)-1-(4-fluorophenyl)-N-methyl-N-(3-(methylamino)bicyclo[1.1.1]pentan-1-yl)-3,4-dihydroisoquinoline-2(1H)-carboxamide] | > 10000 |
| N[C@H]1C[C@@H](NC(=O)N2CCc3ccccc3[C@@H]2c2ccc(F)cc2)CC(F)(F)C1 (single isomer, unassigned) [Compound 4142] | 810 |
| CNC12CC(CCC(=O)N3CCc4ccccc4C3c3ccc(F)cc3)(C1)C2 [Compound 4058, (S)-1-(1-(4-fluorophenyl)-3,4-dihydroisoquinolin-2(1H)-yl)-3-(3-(methylamino)bicyclo[1.1.1]pentan-1-yl)propan-1-one hydrochloride] | 900 |
| CC(C)(NC(=O)N1CCc2ccccc2C1c1ccc(F)cc1)C12CC(N)(C1)C2 [Compound 4050, (S)—N-(2-(3-aminobicyclo[1.1.1]pentan-1-yl)propan-2-yl)-1-(4-fluorophenyl)-3,4-dihydroisoquinoline-2(1H)-carboxamide hydrochloride] | > 10000 |
| CNC1(COC(=O)N2CCc3ccccc3[C@@H]2c2ccc(F)cc2)CC1 [Compound 4051, (1-(Methylamino)cyclopropyl)methyl (S)-1-(4-fluorophenyl)-3,4-dihydroisoquinoline-2(1H)-carboxylate hydrochloride] | 460 |
| N[C@H]1C[C@H](CNC(=O)N2CCc3ccccc3[C@@H]2c2ccc(F)cc2)C1 [Compound 4029, Trans-(S)—N-((3-aminocyclobutyl)methyl)-1-(4-fluorophenyl)-3,4-dihydroisoquinoline-2(1H)-carboxamide] | 3400 |
| O=C(NC12CC(N3CCS(=O)(=O)CC3)(C1)C2)N1CCc2ccccc2[C@@H]1c1ccc(F)cc1 [Compound 4021, (S)—N-(3-(1,1-dioxidothiomorpholino)bicyclo[1.1.1]pentan-1-yl)-1-(4-fluorophenyl)-3,4-dihydroisoquinoline-2(1H)-carboxamide] | > 10000 |
| CCN[C@H]1C[C@H](OC(=O)N2CCc3ccccc3[C@@H]2c2ccc(F)cc2)C1 [Compound 4130] | 740 |
| N[C@H]1C[C@H](NC(=O)N2CCc3ccccc3[C@@H]2c2ccc(F)cc2)C1 [Compound 4035, (S)—N-(trans-3-aminocyclobutyl)-1-(4-fluorophenyl)-3,4-dihydroisoquinoline-2(1H)-carboxamide hydrochloride] | 490 |
| N[C@H]1CCC1OC(=O)N1CCc2ccccc2[C@@H]1c1ccc(F)cc1 (single isomer, unassigned) [Compound 4040, hydrochloride] | 2330 |
| NC1(COC(=O)N2CCc3ccccc3[C@@H]2c2ccc(F)cc2)CC1 [Compound 4033, (1-Aminocyclopropyl)methyl (S)-1-(4-fluorophenyl)-3,4-dihydroisoquinoline-2(1H)-carboxylate hydrochloride] | 320 |
| O=C(NC12CC(N3CC(F)(F)C3)(C1)C2)N1CCc2ccccc2[C@@H]1c1ccc(F)cc1 [Compound 4052, (S)—N-(3-(3,3-difluoroazetidin-1-yl)bicyclo[1.1.1]pentan-1-yl)-1-(4-fluorophenyl)-3,4-dihydroisoquinoline-2(1H)-carboxamide] | > 10000 |

Now those with a lower EC50, led by results:

| EC50 [nM] | Compound |
| --- | --- |
| 92 | N[C@H]1C[C@@H](C(=O)N2CCc3ccccc3[C@@H]2c2ccc(F)cc2)C1 [Compound 4148, (cis-3-aminocyclobutyl)((S)-1-(4-fluorophenyl)-3,4-dihydroisoquinolin-2(1H)-yl)methanone] |
| 84 | N[C@H]1CC[C@@H](C(=O)N2CCc3ccccc3[C@@H]2c2ccc(F)cc2)CC1 [Compound 4143, cis-(S)-(4-aminocyclohexyl)(1-(4-fluorophenyl)-3,4-dihydroisoquinolin-2(1H)-yl)methanone] |
| 266 | NC12CC(NC(=O)N3CCc4ccccc4[C@@H]3c3ccc(F)cc3)(C1)C2 [Compound 4002, (S)—N-(3-aminobicyclo[1.1.1]pentan-1-yl)-1-(4-fluorophenyl)-3,4-dihydroisoquinoline-2(1H)-carboxamide] |
| 130 | NC[C@]1(O)C[C@@H](C(=O)N2CCc3ccccc3[C@@H]2c2ccc(F)cc2)C1 (single isomer, unassigned) [Compound 4153] |
| 191 | O=C(O[C@H]1C[C@@H](NCCO)C1)N1CCc2ccccc2[C@@H]1c1ccc(F)cc1 [Compound 4145, cis-3-((2-hydroxyethyl)amino)cyclobutyl (S)-1-(4-fluorophenyl)-3,4-dihydroisoquinoline-2(1H)-carboxylate] |
| 245 | NC[C@H]1C[C@H](C(=O)N2CCc3ccccc3[C@@H]2c2ccc(F)cc2)C1 [Compound 4149, (trans-3-(aminomethyl)cyclobutyl)((S)-1-(4-fluorophenyl)-3,4-dihydroisoquinolin-2(1H)-yl)methanone] |
| 83 | N[C@]1(CO)C[C@H](C(=O)N2CCc3ccccc3[C@@H]2c2ccc(F)cc2)C1 [Compound 4151, (cis-3-amino-3-(hydroxymethyl)cyclobutyl)((S)-1-(4-fluorophenyl)-3,4-dihydroisoquinolin-2(1H)-yl)methanone] |
| 59 | C[C@]1(N)C[C@H](NC(=O)N2CCc3ccccc3[C@@H]2c2ccc(F)cc2)C1 [Compound 4042, (S)—N-(trans-3-amino-3-methylcyclobutyl)-1-(4-fluorophenyl)-3,4-dihydroisoquinoline-2(1H)-carboxamide hydrochloride] |
| 89 | O=C(O[C@H]1C[C@H](NCCO)C1)N1CCc2ccccc2[C@@H]1c1ccc(F)cc1 [Compound 4146, trans-3-((2-hydroxyethyl)amino)cyclobutyl (S)-1-(4-fluorophenyl)-3,4-dihydroisoquinoline-2(1H)-carboxylate] |
| 112 | NC[C@]1(O)C[C@H](C(=O)N2CCc3ccccc3[C@@H]2c2ccc(F)cc2)C1 [Compound 4154, (trans-3-(aminomethyl)-3-hydroxycyclobutyl)((S)-1-(4-fluorophenyl)-3,4-dihydroisoquinolin-2(1H)-yl)methanone] |
